Assay results: patent US6710049B2, “Azole compounds as anti-fungal agents” (Ranbaxy Laboratories Limited, priority 2000, dated 2004)
Converted amounts (≈) assume the structure as drawn.

Tests used:
A fumigatus SI-1 - 1019 = experiment: MFC determination (subculture on Sabouraud Dextrose Agar); assay type: cell-based, Aspergillus fumigatus; conditions: Aspergillus fumigatus, SI11019, read-out: Minimum Fungicidal Concentration (MFC)
Text: (§1) The in-vitro evaluation of the antifungal activity of the compounds can be performed by determining the minimum inhibitory concentration (MIC) as shown in Table 1 which is the concentration of the test compound in Rosewell Park Memorial Institute (RPMI) 1640 liquid medium buffered with 3-(Morpholino)propanesulphonic acid (MOPS) to pH 7, at which there is significant inhibition of the particular fungi. In practice the National Committee for Clinical Laboratory Standard (NCCLS) M27A document for Candida and Cryptococcus and M38P for Aspergillus was used to determine the MIC against yeast and filamentous fungi with suitable modifications for dermatophytes to other filamentous fungi. Three quality control strains were included each time the MIC were determined and readings recorded only when the Quality Control results fell into the acceptable range. After MIC results had been recorded, 100 μl from each of the well showing no growth was spread over Sabouraud Dextrose Agar (SDA) to determine the minimum fungicidal concentration (MFC) as shown in Table 2.

A fumigatus 1008 [1] = experiment: as above; assay type: cell-based, Aspergillus fumigatus; conditions: Aspergillus fumigatus, read-out: Minimum Fungicidal Concentration (MFC)
Text: as §1

Penicilliuim 2306 = experiment: MIC determination (NCCLS broth method); assay type: cell-based, Penicillium; conditions: Penicillium, read-out: Minimum Inhibitory Concentration (MIC)
Text: as §1

T. rubrum = experiment: Activity against dermatophytes; assay type: cell-based; set-up: unit not given here
Text: as §1
(§2) A comparative in vitro and in vivo biologically activity data of the compound of our invention, 2-{[1R,2R]-2-(2,4-Difluorophenyl)-2-hydroxy-1-methyl-3-(1H-1,2,4-triazole-1-yl)propyl}-4-[(2′,2′,3′,3′-tetrafluoropropoxyphenyl)-3-(2H,4H)-1,2,4-thiotriazolone (Compound No. 3) with 2-[(1R,2R)-2-(2,4-difluorophenyl)-2-hydroxy-1-methyl-3-(1H-1,2,4-triazol-1-yl)propyl]-4-(2′,2′,3′,3′-tetraflouropropoxyphenyl)-3(2H,4H)-1,2,4-triazolone (TAK 187) and standard antifungal pharmaceuticals is given below: […]

T. mentagrophyte = experiment: Activity against dermatophytes; assay type: cell-based; set-up: unit not given here
Text: as §1, §2

A fumigatus J - 1032 = experiment: MIC determination (NCCLS broth method); assay type: cell-based, Aspergillus fumigatus; conditions: Aspergillus fumigatus, J1032, read-out: Minimum Inhibitory Concentration (MIC)
Summary of the method: (§3)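 Broth dilution per NCCLS M27A (yeasts) or M38P (filamentous fungi) in RPMI 1640 buffered with MOPS to pH 7; MIC taken as the concentration giving significant fungal inhibition, recorded only when three QC strains were within range. MFC determined by subculturing no-growth wells onto Sabouraud Dextrose Agar.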

A fumigatus II - 1012 = experiment: MIC determination (NCCLS broth method); assay type: cell-based, Aspergillus fumigatus; conditions: Aspergillus fumigatus, II1012, read-out: Minimum Inhibitory Concentration (MIC)
Summary of the method: as §3

A fumigatus K - 1033 = experiment: MIC determination (NCCLS broth method); assay type: cell-based, Aspergillus fumigatus; conditions: Aspergillus fumigatus, K1033, read-out: Minimum Inhibitory Concentration (MIC)
Summary of the method: as §3

A fumigatus L - 1034 = experiment: MIC determination (NCCLS broth method); assay type: cell-based, Aspergillus fumigatus; conditions: Aspergillus fumigatus, L1034, read-out: Minimum Inhibitory Concentration (MIC)
Summary of the method: as §3

A fumigatus PGI - 1023 = experiment: MIC determination (NCCLS broth method); assay type: cell-based, Aspergillus fumigatus; conditions: Aspergillus fumigatus, PGI1023, read-out: Minimum Inhibitory Concentration (MIC)
Summary of the method: as §3

A fumigatus I - 1011 = experiment: MIC determination (NCCLS broth method); assay type: cell-based, Aspergillus fumigatus; conditions: Aspergillus fumigatus, I1011, read-out: Minimum Inhibitory Concentration (MIC)
Summary of the method: as §3

A fumigatus 1008 [2] = experiment: MIC determination (NCCLS broth method); assay type: cell-based, Aspergillus fumigatus; conditions: Aspergillus fumigatus, read-out: Minimum Inhibitory Concentration (MIC)
Summary of the method: as §3

Penicillium 31620 = experiment: MFC determination (subculture on Sabouraud Dextrose Agar); assay type: cell-based; conditions: read-out: Minimum Fungicidal Concentration (MFC)
Text: as §1

Fusarium (Ceylon) = experiment: as above; assay type: cell-based; conditions: read-out: Minimum Fungicidal Concentration (MFC)
Text: as §1

A flavus P3 - 1041 = experiment: as above; assay type: cell-based; conditions: read-out: Minimum Fungicidal Concentration (MFC)
Text: as §1

Penicillium 1641 = experiment: as above; assay type: cell-based; conditions: read-out: Minimum Fungicidal Concentration (MFC)
Text: as §1

A niger E5 - 1047 = experiment: as above; assay type: cell-based; conditions: read-out: Minimum Fungicidal Concentration (MFC)
Text: as §1

Fusarium 18270 = experiment: as above; assay type: cell-based; conditions: Fusarium, 18270, read-out: Minimum Fungicidal Concentration (MFC)
Text: as §1

Rhizopus 1052 = experiment: as above; assay type: cell-based; conditions: read-out: Minimum Fungicidal Concentration (MFC)
Text: as §1

Penicillium H - 1048 = experiment: as above; assay type: cell-based; conditions: H1048, read-out: Minimum Fungicidal Concentration (MFC)
Text: as §1

Fusarium 29600 = experiment: as above; assay type: cell-based; conditions: Fusarium, 29600, read-out: Minimum Fungicidal Concentration (MFC)
Text: as §1

A flavus P2 - 1045 = experiment: as above; assay type: cell-based; conditions: read-out: Minimum Fungicidal Concentration (MFC)
Text: as §1

Alternaria 1051 = experiment: as above; assay type: cell-based; conditions: read-out: Minimum Fungicidal Concentration (MFC)
Text: as §1

Penicillium 191 = experiment: as above; assay type: cell-based; conditions: read-out: Minimum Fungicidal Concentration (MFC)
Text: as §1

Penicillium 2306 = experiment: as above; assay type: cell-based; conditions: read-out: Minimum Fungicidal Concentration (MFC)
Text: as §1

A niger P1 - 1046 = experiment: as above; assay type: cell-based; conditions: read-out: Minimum Fungicidal Concentration (MFC)
Text: as §1

A flavus E4 - 1042 = experiment: as above; assay type: cell-based; conditions: read-out: Minimum Fungicidal Concentration (MFC)
Text: as §1

C parapsilosis 22019 = experiment: as above; assay type: cell-based; conditions: read-out: Minimum Fungicidal Concentration (MFC)
Text: as §1

Penicillium 2548 = experiment: as above; assay type: cell-based; conditions: read-out: Minimum Fungicidal Concentration (MFC)
Text: as §1

C krusei 6258 = experiment: as above; assay type: cell-based; conditions: read-out: Minimum Fungicidal Concentration (MFC)
Text: as §1

Rhizopus (Ceylon) = experiment: as above; assay type: cell-based; conditions: read-out: Minimum Fungicidal Concentration (MFC)
Text: as §1

Mucor (Ceylon) = experiment: as above; assay type: cell-based; conditions: read-out: Minimum Fungicidal Concentration (MFC)
Text: as §1

Penicillium I - 1049 = experiment: as above; assay type: cell-based; conditions: I1049, read-out: Minimum Fungicidal Concentration (MFC)
Text: as §1

A flavus E3 - 1044 = experiment: as above; assay type: cell-based; conditions: read-out: Minimum Fungicidal Concentration (MFC)
Text: as §1

SMILES | MFC (A fumigatus SI-1 - 1019) | MFC (A fumigatus 1008 [1]) | MIC (Penicilliuim 2306) | Activity against dermatophytes (T. rubrum) | Activity against dermatophytes (T. mentagrophyte) | MIC (A fumigatus J - 1032) | MIC (A fumigatus II - 1012) | MIC (A fumigatus K - 1033) | MIC (A fumigatus L - 1034) | MIC (A fumigatus PGI - 1023) | MIC (A fumigatus I - 1011) | MIC (A fumigatus 1008 [2]) | MFC (Penicillium 31620) | MFC (Fusarium (Ceylon)) | MFC (A flavus P3 - 1041) | MFC (Penicillium 1641) | MFC (A niger E5 - 1047) | MFC (Fusarium 18270) | MFC (Rhizopus 1052) | MFC (Penicillium H - 1048) | also measured
OC(Cn1cncn1)(Cn1cncn1)c1ccc(F)cc1F [Fluconazole] | > 128 µg/mL | > 128 µg/mL | > 128 µg/mL | >128 | >128 | > 128 µg/mL | > 128 µg/mL | > 128 µg/mL | > 128 µg/mL | > 128 µg/mL | > 128 µg/mL | > 128 µg/mL | > 128 µg/mL | > 128 µg/mL | > 128 µg/mL | > 128 µg/mL | > 128 µg/mL | > 128 µg/mL | > 128 µg/mL | > 128 µg/mL | MFC (Fusarium 29600): > 128 µg/mL; MFC (A flavus P2 - 1045): > 128 µg/mL; MFC (Alternaria 1051): > 128 µg/mL; MFC (Penicillium 191): > 128 µg/mL; MFC (Penicillium 2306): > 128 µg/mL; MFC (A niger P1 - 1046): > 128 µg/mL; MFC (A flavus E4 - 1042): > 128 µg/mL; MFC (C parapsilosis 22019): 4 µg/mL (≈ 13.1 µM); MFC (Penicillium 2548): > 128 µg/mL; MFC (C krusei 6258): 128 µg/mL (≈ 418 µM); MFC (Rhizopus (Ceylon)): > 128 µg/mL; MFC (Mucor (Ceylon)): > 128 µg/mL; MFC (Penicillium I - 1049): > 128 µg/mL; MFC (A flavus E3 - 1044): > 128 µg/mL
CCC(C)n1ncn(-c2ccc(N3CCN(c4ccc(OCC5COC(Cn6cncn6)(c6ccc(Cl)cc6Cl)O5)cc4)CC3)cc2)c1=O (centres unmarked) [Itraconazole] | 0.25 µg/mL (≈ 0.354 µM) | 0.06 µg/mL (≈ 0.085 µM) | 0.125 µg/mL (≈ 0.177 µM) | 0.03 | 0.125 | 0.03 µg/mL (≈ 0.0425 µM) | 0.06 µg/mL (≈ 0.085 µM) | 0.06 µg/mL (≈ 0.085 µM) | 0.06 µg/mL (≈ 0.085 µM) | 0.03 µg/mL (≈ 0.0425 µM) | 0.06 µg/mL (≈ 0.085 µM) | 0.06 µg/mL (≈ 0.085 µM) | 1 µg/mL (≈ 1.42 µM) | > 128 µg/mL | 0.06 µg/mL (≈ 0.085 µM) | 0.06 µg/mL (≈ 0.085 µM) | 0.125 µg/mL (≈ 0.177 µM) | 128 µg/mL (≈ 181 µM) | 8 µg/mL (≈ 11.3 µM) | > 128 µg/mL | MFC (Fusarium 29600): > 128 µg/mL; MFC (A flavus P2 - 1045): 0.25 µg/mL (≈ 0.354 µM); MFC (Alternaria 1051): 32 µg/mL (≈ 45.3 µM); MFC (Penicillium 191): 0.06 µg/mL (≈ 0.085 µM); MFC (Penicillium 2306): 16 µg/mL (≈ 22.7 µM); MFC (A niger P1 - 1046): 0.25 µg/mL (≈ 0.354 µM); MFC (A flavus E4 - 1042): 0.125 µg/mL (≈ 0.177 µM); MFC (C parapsilosis 22019): 8 µg/mL (≈ 11.3 µM); MFC (Penicillium 2548): 0.06 µg/mL (≈ 0.085 µM); MFC (C krusei 6258): 64 µg/mL (≈ 90.7 µM); MFC (Rhizopus (Ceylon)): 128 µg/mL (≈ 181 µM); MFC (Mucor (Ceylon)): > 128 µg/mL; MFC (Penicillium I - 1049): > 128 µg/mL; MFC (A flavus E3 - 1044): 0.03 µg/mL (≈ 0.0425 µM)
